Measured values reported in the supplement of paper PMC10307832.

What was measured:
Experiment in all cases: relative viability (nuclei count vs DMSO), 5 days (fraction); higher = more cells survive
LC-2-ad = system: LC-2-ad
Method in brief: (§1)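 Cells from lung cancer lines were seeded into 1536-well plates and, one day later, dosed by pin tool. Treatments were either a single drug or a fixed dose of an anchor drug with five library-drug doses (not always all listed) in √10 steps. After 5 days, nuclei were stained in a one-step fixation (final 0.05% Triton X-100, 1% formaldehyde, 1 ug/ml Hoechst) and counted on 4× images, and relative viability is the treated-to-vehicle nuclei ratio, as the median of duplicate plates.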

UMC-11 = system: UMC-11
Method in brief: as §1

CAL-12T = system: CAL-12T
Method in brief: as §1

HCC-827 = system: HCC-827
Method in brief: as §1

RERF-LC-KJ = system: RERF-LC-KJ
Method in brief: as §1

LU99A = system: LU99A
Method in brief: as §1

201T = system: 201T
Method in brief: as §1

LCLC-103H = system: LCLC-103H
Method in brief: as §1

NCI-H322M = system: NCI-H322M
Method in brief: as §1

NCI-H2228 = system: NCI-H2228
Method in brief: as §1

LK-2 = system: LK-2
Method in brief: as §1

NCI-H1792 = system: NCI-H1792
Method in brief: as §1

NCI-H1437 = system: NCI-H1437
Method in brief: as §1

BEN = system: BEN
Method in brief: as §1

NCI-H1651 = system: NCI-H1651
Method in brief: as §1

NCI-H23 = system: NCI-H23
Method in brief: as §1

COR-L 105 = system: COR-L 105
Method in brief: as §1

NCI-H2405 = system: NCI-H2405
Method in brief: as §1

HCC-15 = system: HCC-15
Method in brief: as §1

HARA = system: HARA
Method in brief: as §1

NCI-H2085 = system: NCI-H2085
Method in brief: as §1

H3255 = system: H3255
Method in brief: as §1

LXF-289 = system: LXF-289
Method in brief: as §1

For Cc1cnc(-c2cnc(NCCNc3ccc(C#N)cn3)nc2-c2ccc(Cl)cc2Cl)[nH]1 + C[C@@H](Oc1cc(-c2cnn(C3CCNCC3)c2)cnc1N)c1c(Cl)ccc(F)c1Cl [Crizotinib] (partner 1 µM), the relative viability (LC-2-ad; first compound 0.08 µM) was 0.489, the relative viability (LC-2-ad; first compound 2.53 µM) was 0.426 and the relative viability (UMC-11; first compound 0.08 µM) was 0.82. It also gave a relative viability (UMC-11; first compound 0.253 µM) of 0.551, a relative viability (UMC-11; first compound 0.8 µM) of 0.598 and a relative viability (UMC-11; first compound 2.53 µM) of 0.602. It also gave a relative viability (CAL-12T; first compound 0.08 µM) of 0.722, a relative viability (CAL-12T; first compound 0.253 µM) of 0.507 and a relative viability (CAL-12T; first compound 0.8 µM) of 0.529. For the same compound, the relative viability (CAL-12T; first compound 2.53 µM) was 0.376, the relative viability (HCC-827; first compound 0.08 µM) was 0.929 and the relative viability (HCC-827; first compound 0.8 µM) was 0.882. For the same compound, the relative viability (HCC-827; first compound 2.53 µM) was 0.923, the relative viability (RERF-LC-KJ; first compound 0.08 µM) was 0.833 and the relative viability (RERF-LC-KJ; first compound 0.253 µM) was 0.712. It also gave a relative viability (RERF-LC-KJ; first compound 0.8 µM) of 0.794, a relative viability (RERF-LC-KJ; first compound 2.53 µM) of 0.846 and a relative viability (LU99A; first compound 0.08 µM) of 0.621. For the same compound, the relative viability (LU99A; first compound 0.253 µM) was 0.459, the relative viability (LU99A; first compound 0.8 µM) was 0.534 and the relative viability (LU99A; first compound 2.53 µM) was 0.592. It also gave a relative viability (201T; first compound 0.08 µM) of 1.07, a relative viability (201T; first compound 0.253 µM) of 0.982 and a relative viability (201T; first compound 0.8 µM) of 1.02. For the same compound, the relative viability (201T; first compound 2.53 µM) was 0.998, the relative viability (LCLC-103H; first compound 0.08 µM) was 1.04 and the relative viability (LCLC-103H; first compound 0.253 µM) was 1.12. For the same compound, the relative viability (LCLC-103H; first compound 0.8 µM) was 0.984, the relative viability (LCLC-103H; first compound 2.53 µM) was 0.954 and the relative viability (NCI-H322M; first compound 0.08 µM) was 0.925. For the same compound, the relative viability (NCI-H322M; first compound 0.253 µM) was 0.81, the relative viability (NCI-H322M; first compound 0.8 µM) was 0.821 and the relative viability (NCI-H322M; first compound 2.53 µM) was 0.858. It also gave a relative viability (NCI-H2228; first compound 0.08 µM) of 0.47, a relative viability (NCI-H2228; first compound 0.253 µM) of 0.412 and a relative viability (NCI-H2228; first compound 0.8 µM) of 0.612. The relative viability (NCI-H2228; first compound 2.53 µM) was 0.619, the relative viability (LK-2; first compound 0.08 µM) was 0.194 and the relative viability (LK-2; first compound 0.253 µM) was 0.239. It also gave a relative viability (LK-2; first compound 0.8 µM) of 0.242, a relative viability (LK-2; first compound 2.53 µM) of 0.236 and a relative viability (NCI-H1792; first compound 0.08 µM) of 0.975. The relative viability (NCI-H1792; first compound 0.253 µM) was 0.803, the relative viability (NCI-H1792; first compound 0.8 µM) was 0.947 and the relative viability (NCI-H1792; first compound 2.53 µM) was 0.936. The relative viability (NCI-H1437; first compound 0.08 µM) was 0.912, the relative viability (NCI-H1437; first compound 0.253 µM) was 0.943 and the relative viability (NCI-H1437; first compound 0.8 µM) was 0.944. It also gave a relative viability (NCI-H1437; first compound 2.53 µM) of 0.981, a relative viability (BEN; first compound 0.08 µM) of 0.908 and a relative viability (BEN; first compound 0.253 µM) of 0.787. For the same compound, the relative viability (BEN; first compound 0.8 µM) was 0.846, the relative viability (BEN; first compound 2.53 µM) was 0.876 and the relative viability (NCI-H1651; first compound 0.08 µM) was 0.915. It also gave a relative viability (NCI-H1651; first compound 0.253 µM) of 0.797, a relative viability (NCI-H1651; first compound 0.8 µM) of 0.852 and a relative viability (NCI-H1651; first compound 2.53 µM) of 0.825. The relative viability (NCI-H23; first compound 0.08 µM) was 0.676, the relative viability (NCI-H23; first compound 0.253 µM) was 0.496 and the relative viability (NCI-H23; first compound 0.8 µM) was 0.638. For the same compound, the relative viability (NCI-H23; first compound 2.53 µM) was 0.621, the relative viability (COR-L 105; first compound 0.08 µM) was 0.869 and the relative viability (COR-L 105; first compound 0.253 µM) was 0.716. It also gave a relative viability (COR-L 105; first compound 0.8 µM) of 0.706, a relative viability (COR-L 105; first compound 2.53 µM) of 0.529 and a relative viability (NCI-H2405; first compound 0.08 µM) of 0.883. It also gave a relative viability (NCI-H2405; first compound 0.253 µM) of 0.774, a relative viability (NCI-H2405; first compound 0.8 µM) of 0.797 and a relative viability (NCI-H2405; first compound 2.53 µM) of 0.809. The relative viability (HCC-15; first compound 0.08 µM) was 0.781, the relative viability (HCC-15; first compound 0.253 µM) was 0.659 and the relative viability (HCC-15; first compound 0.8 µM) was 0.799. It also gave a relative viability (HCC-15; first compound 2.53 µM) of 0.803, a relative viability (HARA; first compound 0.08 µM) of 1.02 and a relative viability (HARA; first compound 0.253 µM) of 0.956. The relative viability (HARA; first compound 0.8 µM) was 1.06, the relative viability (HARA; first compound 2.53 µM) was 1.12 and the relative viability (NCI-H2085; first compound 0.08 µM) was 0.719. The relative viability (NCI-H2085; first compound 0.253 µM) was 0.888, the relative viability (NCI-H2085; first compound 0.8 µM) was 1.06 and the relative viability (NCI-H2085; first compound 2.53 µM) was 0.974. For the same compound, the relative viability (H3255; first compound 0.08 µM) was 1.03, the relative viability (H3255; first compound 0.253 µM) was 0.809 and the relative viability (H3255; first compound 0.8 µM) was 0.853. It also gave a relative viability (H3255; first compound 2.53 µM) of 0.79, a relative viability (LXF-289; first compound 0.08 µM) of 0.852 and a relative viability (LXF-289; first compound 0.253 µM) of 0.796. It also gave a relative viability (LXF-289; first compound 0.8 µM) of 0.839 and a relative viability (LXF-289; first compound 2.53 µM) of 0.87.
